In patent publication US9382197B2, “Substituted hydroxamic acids and uses thereof” (Millennium Pharmaceuticals, Inc., priority 2010, dated 2016):
pIC50: −log10 of the molar value.

What follows are molecules tested against T1, purified human HDAC6 (Homo sapiens, UniProt Q9UBN7) (assay: HDAC6 Enzyme Assay). Settings: bin: greater than 500 nM and less than 1 μM (lower bound in nM, upper bound in μM).
T1 construct: purchased BPS Bioscience 5006
T1 sequence (Q9UBN7 1-1215): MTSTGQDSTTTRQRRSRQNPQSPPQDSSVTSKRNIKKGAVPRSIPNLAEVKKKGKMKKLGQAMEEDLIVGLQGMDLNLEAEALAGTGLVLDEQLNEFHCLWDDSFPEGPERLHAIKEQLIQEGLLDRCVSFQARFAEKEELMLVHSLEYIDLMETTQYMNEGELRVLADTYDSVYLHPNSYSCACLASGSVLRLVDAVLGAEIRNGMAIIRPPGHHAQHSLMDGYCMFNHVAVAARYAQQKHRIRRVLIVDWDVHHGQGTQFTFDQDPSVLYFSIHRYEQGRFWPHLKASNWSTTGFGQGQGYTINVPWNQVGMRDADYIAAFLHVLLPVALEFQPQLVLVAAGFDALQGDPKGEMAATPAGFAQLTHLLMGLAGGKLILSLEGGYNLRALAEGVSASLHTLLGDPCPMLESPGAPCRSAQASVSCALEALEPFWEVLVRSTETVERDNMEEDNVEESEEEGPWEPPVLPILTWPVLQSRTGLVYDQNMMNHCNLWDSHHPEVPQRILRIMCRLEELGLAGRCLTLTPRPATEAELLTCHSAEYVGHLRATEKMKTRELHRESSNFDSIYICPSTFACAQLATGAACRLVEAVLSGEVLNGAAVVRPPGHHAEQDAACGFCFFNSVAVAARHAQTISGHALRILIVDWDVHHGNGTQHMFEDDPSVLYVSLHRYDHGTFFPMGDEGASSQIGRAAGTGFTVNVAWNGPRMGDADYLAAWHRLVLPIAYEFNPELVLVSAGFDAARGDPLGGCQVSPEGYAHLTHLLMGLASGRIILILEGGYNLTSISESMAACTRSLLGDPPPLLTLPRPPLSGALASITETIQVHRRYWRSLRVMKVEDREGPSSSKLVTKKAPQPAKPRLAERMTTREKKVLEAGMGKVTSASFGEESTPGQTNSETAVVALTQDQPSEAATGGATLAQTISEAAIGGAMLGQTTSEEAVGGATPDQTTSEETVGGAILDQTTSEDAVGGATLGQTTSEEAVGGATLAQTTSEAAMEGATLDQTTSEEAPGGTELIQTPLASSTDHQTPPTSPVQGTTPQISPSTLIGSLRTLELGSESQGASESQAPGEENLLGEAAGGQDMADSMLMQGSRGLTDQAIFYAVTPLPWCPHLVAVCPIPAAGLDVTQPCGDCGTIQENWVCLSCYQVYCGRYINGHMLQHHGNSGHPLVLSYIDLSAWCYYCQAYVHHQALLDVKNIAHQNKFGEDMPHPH
Format: biochemical
Description: To measure the inhibition of HDAC6 activity, purified human HDAC6 (BPS Bioscience; Cat. No. 5006) is incubated with substrate Ac-Arg-Gly-Lys(Ac)-AMC peptide (Bachem Biosciences; Cat. No. 1-1925) for 1 hour at 30° C. in the presence of test compounds or vehicle DMSO control. The reaction is stopped with the HDAC inhibitor trichostatin A (Sigma; Cat. No. T8552) and the amount of Arg-Gly-Lys-AMC generated is quantitated by digestion with trypsin (Sigma; Cat. No. T1426) and subsequent measurement of the amount of AMC released using a fluorescent plate reader (Pherastar; BMG Technologies) set at Ex 340 nm and Em 460 nm. Concentration response curves are generated by calculating the fluorescence increase in test compound-treated samples relative to DMSO-treated controls, and enzyme inhibition (IC50) values are determined from those curves.
`CC(C)(C)C(NC(=O)c1cccc(S(C)(=O)=O)c1)c1ccc(C(=O)NO)cc1` (stereo not shown) [Compound I-75, N-(1-{4-[(hydroxyamino)carbonyl]phenyl}-2,2-dimethylpropyl)-3-(methylsulfonyl)benzamide] gave an IC50 of 500 to 1000 nM. `CC(NC(=O)c1ccn(C)n1)c1cccc(C(=O)NO)c1` (stereo not shown) [Compound I-81, N-(1-{3-[(hydroxyamino)carbonyl]phenyl}ethyl)-1-methyl-1H-pyrazole-3-carboxamide] gave an IC50 of 500 to 1000 nM. `Cc1cc(C)c(C(=O)NC(C)c2cccc(C(=O)NO)c2)[nH]1` (stereo not shown) [Compound I-91, N-(1-{3-[(hydroxyamino)carbonyl]phenyl}ethyl)-3,5-dimethyl-1H-pyrrole-2-carboxamide] showed an IC50 of 500 to 1000 nM. With `CC(NC(=O)c1c2c(nn1C)CCCC2)c1cccc(C(=O)NO)c1` (stereo not shown) [Compound I-101, N-(1-{3-[(hydroxyamino)carbonyl]phenyl}ethyl)-2-methyl-4,5,6,7-tetrahydro-2H-indazole-3-carboxamide] the IC50 was 500 to 1000 nM. `Cn1c(C(=O)N[C@@H](c2ccc(C(=O)NO)cc2)C(F)(F)F)cc(Cl)c1Cl` [Compound I-108, 4,5-dichloro-1-methyl-N-((1S)-2,2,2-trifluoro-1-{4-[(hydroxyamino)carbonyl]phenyl}ethyl)-1H-pyrrole-2-carboxamide] showed an IC50 of 500 to 1000 nM.

Same assay, conditions: bin: greater than 1 μM
`Cc1oc(-c2ccccc2)nc1CC(=O)NC(c1ccc(C(=O)NO)cc1)C(C)(C)C` (stereo not shown) [Compound I-80, 4-(2,2-dimethyl-1-{[(5-methyl-2-phenyl-1,3-oxazol-4-yl)acetyl]amino}propyl)-N-hydroxybenzamide] was tested, and the pIC50 was less than 6.00. Work on `CC(NC(=O)C12CC3CC(CC(C3)C1)C2)c1cccc(C(=O)NO)c1` (stereo not shown) [Compound I-83, N-(1-{3-[(hydroxyamino)carbonyl]phenyl}ethyl)adamantane-1-carboxamide] yielded a pIC50 of less than 6.00. For `Cc1c(C(=O)NC(c2cccc(C(=O)NO)c2)C(C)C)oc2ccccc12` (stereo not shown) [Compound I-93, N-(1-{3-[(hydroxyamino)carbonyl]phenyl}-2-methylpropyl)-3-methyl-1-benzofuran-2-carboxamide], the pIC50 was less than 6.00. `CC(NC(=O)c1nc2ccccc2n1C)c1cccc(C(=O)NO)c1` (stereo not shown) [Compound I-100, N-(1-{3-[(hydroxyamino)carbonyl]phenyl}ethyl)-1-methyl-1H-benzimidazole-2-carboxamide] gave a pIC50 of less than 6.00. Work on `Cc1cc(C(=O)NC(C)c2cccc(C(=O)NO)c2)c(C)o1` (stereo not shown) [Compound I-104, N-(1-{3-[(hydroxyamino)carbonyl]phenyl}ethyl)-2,5-dimethyl-3-furamide] yielded a pIC50 of less than 6.00.

Same assay, conditions: purified human HDAC6, substrate Ac-Arg-Gly-Lys(Ac)-AMC, 1 hour at 30° C.; reported as bins
Molecule `Cc1ccccc1CNC(=O)NC(C)c1ccc(C(=O)NO)cc1` (stereo not shown) [Compound I-76, N-hydroxy-4-[1-({[(2-methylbenzyl)amino]carbonyl}amino)ethyl]benzamide] has a pIC50 of 6.30 to 7.00. For `CC(C)C(NC(=O)c1cc(C(C)(C)C)nn1Cc1ccccc1)c1ccc(C(=O)NO)cc1` (stereo not shown) [Compound I-77, 1-benzyl-3-tert-butyl-N-(1-{4-[(hydroxyamino)carbonyl]phenyl}-2-methylpropyl)-1H-pyrazole-5-carboxamide], the pIC50 was 6.30 to 7.00. In the case of `Cc1ccc(S(=O)(=O)NC(C)c2ccc(C(=O)NO)cc2)c(C)c1` (stereo not shown) [Compound I-78, 4-(1-{[(2,4-dimethylphenyl)sulfonyl]amino}ethyl)-N-hydroxybenzamide], the pIC50 was 6.30 to 7.00. In the case of `CCC[C@@H](NC(=O)c1cc2ccccc2o1)c1ccc(C(=O)NO)cc1` [Compound I-79, N-((1R)-1-{4-[(hydroxyamino)carbonyl]phenyl}butyl)-1-benzofuran-2-carboxamide], the pIC50 was greater than 7.00. In the case of `Cc1cc(C(=O)NC(C)c2cccc(C(=O)NO)c2)nn1C` (stereo not shown) [Compound I-84, N-(1-{3-[(hydroxyamino)carbonyl]phenyl}ethyl)-1,5-dimethyl-1H-pyrazole-3-carboxamide], the pIC50 was 6.30 to 7.00. Molecule `Cc1cccc(NC(=O)NC(C)c2ccc(C(=O)NO)cc2)c1` (stereo not shown) [Compound I-85, N-hydroxy-4-[1-({[(3-methylphenyl)amino]carbonyl}amino)ethyl]benzamide] has a pIC50 greater than 7.00. `Cc1nn(C)cc1C(=O)NC(c1ccc(C(=O)NO)cc1)C(C)(C)C` (stereo not shown) [Compound I-86, N-(1-{4-[(hydroxyamino)carbonyl]phenyl}-2,2-dimethylpropyl)-1,3-dimethyl-1H-pyrazole-4-carboxamide] was tested, and the pIC50 was 6.30 to 7.00. Molecule `CC(C)(C)C(NC(=O)c1cnccn1)c1ccc(C(=O)NO)cc1` (stereo not shown) [Compound I-87, N-(1-{4-[(hydroxyamino)carbonyl]phenyl}-2,2-dimethylpropyl)pyrazine-2-carboxamide] has a pIC50 of 6.30 to 7.00. With `CC(NC(=O)C1CCCC1)c1ccc(C(=O)NO)cc1` (stereo not shown) [Compound I-88, 4-{1-[(cyclopentylcarbonyl)amino]ethyl}-N-hydroxybenzamide] the pIC50 was greater than 7.00. `CC(NC(=O)Nc1cc(Cl)ccc1Cl)c1ccc(C(=O)NO)cc1` (stereo not shown) [Compound I-89, 4-[1-({[(2,5-dichlorophenyl)amino]carbonyl}amino)ethyl]-N-hydroxybenzamide] was tested, and the pIC50 was greater than 7.00. For `C[C@@H](NC(=O)c1ccc(-c2ccccc2)cc1)c1ccc(C(=O)NO)cc1` [Compound I-92, N-((1R)-1-{4-[(hydroxyamino)carbonyl]phenyl}ethyl)biphenyl-4-carboxamide], the pIC50 was greater than 7.00. Work on `CC(C)C(NC(=O)c1cc2ccccc2s1)c1ccc(C(=O)NO)cc1` (stereo not shown) [Compound I-94, N-(1-{4-[(hydroxyamino)carbonyl]phenyl}-2-methylpropyl)-1-benzothiophene-2-carboxamide] yielded a pIC50 greater than 7.00. `CC(C)[C@@H](NC(=O)c1cc(Cl)c(Cl)n1C)c1ccc(C(=O)NO)cc1` [Compound I-96, 4,5-dichloro-N-((1R)-1-{4-[(hydroxyamino)carbonyl]phenyl}-2-methylpropyl)-1-methyl-1H-pyrrole-2-carboxamide] showed a pIC50 greater than 7.00. Work on `CC(NC(=O)c1cc2ccccc2s1)c1cccc(C(=O)NO)c1` (stereo not shown) [Compound I-97, N-(1-{3-[(hydroxyamino)carbonyl]phenyl}ethyl)-1-benzothiophene-2-carboxamide] yielded a pIC50 of 6.30 to 7.00. `CC(NC(=O)c1cc2ccccc2n1C)c1ccc(C(=O)NO)cc1` (stereo not shown) [Compound I-98, N-(1-{4-[(hydroxyamino)carbonyl]phenyl}ethyl)-1-methyl-1H-indole-2-carboxamide] gave a pIC50 greater than 7.00. Work on `O=C(NO)c1ccc([C@H](NC(=O)c2cc3ccccc3s2)c2ccccc2)cc1` [Compound I-99, N-[(R)-{4-[(hydroxyamino)carbonyl]phenyl}(phenyl)methyl]-1-benzothiophene-2-carboxamide] yielded a pIC50 greater than 7.00. Work on `C[C@@H](NC(=O)c1cccn1C)c1ccc(C(=O)NO)cc1` [Compound I-102, N-((1R)-1-{4-[(hydroxyamino)carbonyl]phenyl}ethyl)-1-methyl-1H-pyrrole-2-carboxamide] yielded a pIC50 greater than 7.00. `Cc1ccc(NC(=O)NC(C)c2ccc(C(=O)NO)cc2)cc1Cl` (stereo not shown) [Compound I-103, 4-[1-({[(3-chloro-4-methylphenyl)amino]carbonyl}amino)ethyl]-N-hydroxybenzamide] showed a pIC50 greater than 7.00. `O=C(N[C@H](c1ccc(C(=O)NO)cc1)C(F)(F)F)NC12CC3CC(CC(C3)C1)C2` [Compound I-105, 4-((1R)-1-{[(1-adamantylamino)carbonyl]amino}-2,2,2-trifluoroethyl)-N-hydroxybenzamide] was tested, and the pIC50 was 6.30 to 7.00. `CCC[C@@H](NC(=O)c1cc2ccccc2n1C)c1ccc(C(=O)NO)cc1` [Compound I-106, N-((1R)-1-{4-[(hydroxyamino)carbonyl]phenyl}butyl)-1-methyl-1H-indole-2-carboxamide] showed a pIC50 greater than 7.00. Work on `Cn1cc(C(=O)NC(c2ccc(C(=O)NO)cc2)C(C)(C)C)c2ccccc21` (stereo not shown) [Compound I-107, N-(1-{4-[(hydroxyamino)carbonyl]phenyl}-2,2-dimethylpropyl)-1-methyl-1H-indole-3-carboxamide] yielded a pIC50 greater than 7.00.
